Earlier results in patent US20010044101A1, “IN VITRO METHOD FOR PREDICTING THE EV[…] OF A PROTEIN TO A DRUG TARGETED THEREAGAINST” (priority 1994, published 2001).
Where two headings read alike, the source gives them in different places.

Tested on: HIV-1

(-)-2′-deoxy-5-fluoro-3′-thiacytidine [FTC]
IC50 (fourth passage of the wild-type HIV-1 progeny, MT-4 cells, increasing FTC concentration, read-out: IC50 (50% inhibitory concentration)): > 50 µM
IC50 (passage 6 virus, tested at higher compound concentrations, read-out: IC50): > 250 µM
IC50 (second passage of the AZT-resistant HIV-1 progeny, MT-4 cells, increasing FTC concentration, read-out: IC50 (50% inhibitory concentration)): > 50 µM
